Reference: US6737383B1, “Herbicidal oxadiazolidines” (priority 1999, dated 2004)

Legend:
bedstraw = experiment: Test B pre/postemergence bedstraw; assay type: in vivo, Galium aparine; conditions: for Bedstraw plant response rating: 10 is complete control
Summary of the method: (§1)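 Test chemicals in a non-phytotoxic solvent mixture with surfactant were sprayed preemergence onto planted seeds and postemergence onto plants 2 to 18 cm tall (1- to 4-leaf stage). After twelve to sixteen days in a greenhouse, injury was visually rated against untreated controls from 0 (no effect) to 10 (complete control).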

blackgrass = experiment: Test B pre/postemergence blackgrass; assay type: in vivo, Alopecurus myosuroides
Summary of the method: as §1

surinam grass = experiment: Test B pre/postemergence surinam grass; assay type: in vivo, Brachiaria decumbens
Summary of the method: as §1

cocklebur = experiment: Test B pre/postemergence cocklebur; assay type: in vivo, Xanthium strumarium
Summary of the method: as §1

corn = experiment: Test B pre/postemergence corn; assay type: in vivo, Zea mays
Summary of the method: as §1

crabgrass = experiment: Test B pre/postemergence crabgrass; assay type: in vivo, Digitaria sanguinalis
Summary of the method: as §1

giant foxtail = experiment: Test B pre/postemergence giant foxtail; assay type: in vivo, Setaria faberii
Summary of the method: as §1

morningglory = experiment: Test B pre/postemergence morningglory; assay type: in vivo, Ipomoea hederacea
Summary of the method: as §1

pigweed = experiment: Test B pre/postemergence pigweed; assay type: in vivo, Amaranthus retroflexus
Summary of the method: as §1

rape = experiment: Test B pre/postemergence rape; assay type: in vivo, Brassica napus
Summary of the method: as §1

soybean = experiment: Test B pre/postemergence soybean; assay type: in vivo, Glycine max
Summary of the method: as §1

sugar beet = experiment: Test B pre/postemergence sugar beet; assay type: in vivo, Beta vulgaris
Summary of the method: as §1

velvetleaf = experiment: Test B pre/postemergence velvetleaf; assay type: in vivo, Abutilon theophrasti
Summary of the method: as §1

wheat = experiment: Test B pre/postemergence wheat; assay type: in vivo, Triticum aestivum
Summary of the method: as §1

wild oat = experiment: Test B pre/postemergence wild oat; assay type: in vivo, Avena fatua
Summary of the method: as §1

purple nutsedge = experiment: Test B pre/postemergence purple nutsedge; assay type: in vivo, Cyperus rotundus
Summary of the method: as §1

[1] = Preemergence, Rate 62 g/ha, scale of 0 to 10 where 0 is no effect and 10 is complete control
[2] = Postemergence, Rate 62 g/ha, scale of 0 to 10, 0 is no effect, 10 is complete control
[3] = Postemergence, Rate 125 g/ha, scale 0 to 10, 0 is no effect, 10 is complete control
[4] = Postemergence, Rate 250 g/ha, scale 0 to 10
[5] = Postemergence, Rate 500 g/ha, scale 0 to 10, 0 is no effect, 10 is complete control
[6] = Preemergence, Rate 125 g/ha, scale 0 to 10, 0 is no effect, 10 is complete control
[7] = Preemergence, Rate 250 g/ha, scale 0 to 10, 0 is no effect, 10 is complete control
[8] = Preemergence, Rate 500 g/ha, scale of 0 to 10 where 0 is no effect and 10 is complete control

CC(C)=CCn1c(=O)on(C(=O)N(c2ccc(F)cc2F)C(C)C)c1=O [Compound 515]
Bedstraw plant response rating (bedstraw; Postemergence, Rate 62 g/ha, scale of 0 to 10, 0 is no effect): 6
Bedstraw plant response rating (bedstraw; Postemergence, Rate 125 g/ha, scale 0 to 10, 0 is no effect): 6
Plant response rating, Bedstraw (bedstraw; [1]): 0
Bedstraw plant response rating (bedstraw; Preemergence, Rate 125 g/ha, scale 0 to 10, 0 is no effect): 0
Bedstraw plant response rating (bedstraw; Preemergence, Rate 250 g/ha, scale 0 to 10, 0 is no effect): 0
Bedstraw plant response rating (bedstraw; Preemergence, Rate 500 g/ha, scale 0 to 10, 0 is no effect): 3
Blackgrass plant response rating (blackgrass; [2]): 0
Blackgrass plant response rating (blackgrass; [3]): 0
Blackgrass plant response rating (blackgrass; [4]): 0
Plant response rating, Blackgrass (blackgrass; [5]): 1
Plant response rating, Blackgrass (blackgrass; [1]): 3
Blackgrass plant response rating (blackgrass; [6]): 5
Blackgrass plant response rating (blackgrass; [7]): 5
Blackgrass plant response rating (blackgrass; [8]): 8
B. signalgrass plant response rating (surinam grass; [2]): 0
B. signalgrass plant response rating (surinam grass; [3]): 0
B. signalgrass plant response rating (surinam grass; Postemergence, Rate 250 g/ha, scale 0 to 10, 0 no effect, 10 complete control): 0
Plant response rating, B. signalgrass (surinam grass; [5]): 3
Plant response rating, B. signalgrass (surinam grass; [1]): 2
B. signalgrass plant response rating (surinam grass; [6]): 8
B. signalgrass plant response rating (surinam grass; [7]): 8
B. signalgrass plant response rating (surinam grass; Preemergence, Rate 500 g/ha, scale 0 to 10, 0 is no effect, 10 is complete control): 9
Cocklebur plant response rating (cocklebur; [2]): 0
Cocklebur plant response rating (cocklebur; [3]): 3
Cocklebur plant response rating (cocklebur; [4]): 3
Plant response rating, Cocklebur (cocklebur; [5]): 5
Plant response rating, Cocklebur (cocklebur; [1]): 0
Cocklebur plant response rating (cocklebur; [6]): 0
Cocklebur plant response rating (cocklebur; [7]): 0
Cocklebur plant response rating (cocklebur; [8]): 0
Corn plant response rating (corn; [2]): 0
Corn plant response rating (corn; [3]): 0
Corn plant response rating (corn; [4]): 0
Plant response rating, Corn (corn; [5]): 0
Plant response rating, Corn (corn; [1]): 0
Corn plant response rating (corn; [6]): 0
Corn plant response rating (corn; [8]): 5
Crabgrass plant response rating (crabgrass; [2]): 4
Crabgrass plant response rating (crabgrass; [3]): 8
Crabgrass plant response rating (crabgrass; [4]): 9
Plant response rating, Crabgrass (crabgrass; [5]): 9
Plant response rating, Crabgrass (crabgrass; [1]): 6
Crabgrass plant response rating (crabgrass; [6]): 7
Crabgrass plant response rating (crabgrass; [8]): 9
Giant foxtail plant response rating (giant foxtail; [2]): 8
Giant foxtail plant response rating (giant foxtail; [3]): 9
Plant response rating, Giant foxtail (giant foxtail; [5]): 9
Plant response rating, Giant foxtail (giant foxtail; [1]): 10
Giant foxtail plant response rating (giant foxtail; [6]): 10
Giant foxtail plant response rating (giant foxtail; [8]): 10
Morningglory plant response rating (morningglory; [2]): 2
Morningglory plant response rating (morningglory; [3]): 2
Plant response rating, Morningglory (morningglory; [5]): 6
Plant response rating, Morningglory (morningglory; [1]): 0
Morningglory plant response rating (morningglory; [6]): 0
Morningglory plant response rating (morningglory; [8]): 0
Redroot pigweed plant response rating (pigweed; [2]): 3
Redroot pigweed plant response rating (pigweed; [3]): 4
Plant response rating, Redroot pigweed (pigweed; [5]): 5
Plant response rating, Redroot pigweed (pigweed; [1]): 8
Redroot pigweed plant response rating (pigweed; [6]): 9
Redroot pigweed plant response rating (pigweed; [8]): 10
Rape plant response rating (rape; [2]): 4
Rape plant response rating (rape; [3]): 4
Plant response rating, Rape (rape; [5]): 6
Plant response rating, Rape (rape; [1]): 0
Rape plant response rating (rape; [6]): 4
Rape plant response rating (rape; [8]): 10
Soybean plant response rating (soybean; [2]): 4
Soybean plant response rating (soybean; [3]): 4
Plant response rating, Soybean (soybean; [5]): 7
Plant response rating, Soybean (soybean; [1]): 0
Soybean plant response rating (soybean; [6]): 0
Soybean plant response rating (soybean; [8]): 0
Sugarbeets plant response rating (sugar beet; [2]): 3
Sugarbeets plant response rating (sugar beet; [3]): 3
Plant response rating, Sugarbeets (sugar beet; [5]): 3
Plant response rating, Sugarbeets (sugar beet; [1]): 0
Sugarbeets plant response rating (sugar beet; [6]): 4
Sugarbeets plant response rating (sugar beet; [8]): 7
Velvetleaf plant response rating (velvetleaf; [2]): 2
Velvetleaf plant response rating (velvetleaf; [3]): 4
Plant response rating, Velvetleaf (velvetleaf; [5]): 8
Plant response rating, Velvetleaf (velvetleaf; [1]): 0
Velvetleaf plant response rating (velvetleaf; [6]): 0
Velvetleaf plant response rating (velvetleaf; [8]): 6
Wheat plant response rating (wheat; [2]): 0
Wheat plant response rating (wheat; [3]): 0
Plant response rating, Wheat (wheat; [5]): 0
Plant response rating, Wheat (wheat; [1]): 0
Wheat plant response rating (wheat; [6]): 0
Wheat plant response rating (wheat; [8]): 7
Wild oats plant response rating (wild oat; [2]): 0
Wild oats plant response rating (wild oat; [3]): 0
Plant response rating, Wild oats (wild oat; [5]): 0
Plant response rating, Wild oats (wild oat; [1]): 3
Wild oats plant response rating (wild oat; [6]): 5
Wild oats plant response rating (wild oat; [8]): 9
Nutsedge plant response rating (purple nutsedge; [2]): 0
Nutsedge plant response rating (purple nutsedge; [3]): 0
Plant response rating, Nutsedge (purple nutsedge; [5]): 0
Plant response rating, Nutsedge (purple nutsedge; [1]): 0
Nutsedge plant response rating (purple nutsedge; [6]): 0
Nutsedge plant response rating (purple nutsedge; [8]): 0
